Laboratory results reported in patent publication US20100166714A1, “CARDIOVASCULAR STEM CELLS, METHODS FOR STEM CELL ISOLATION, AND USES THEREOF” (THE GENERAL HOSPITAL CORPORATION, priority 2006, published 2010).

Tested on: FACS purified isl1+ progenitors spontaneously differentiated into smooth muscle cells
Assay: Calcium imaging (fluo-4) after Angiotensin II stimulation
Type: cell-based, mouse
Settings: Angiotensin II 10^-7 M
Description: Calcium imaging. FACS purified isl1^+ progenitors from double heterozygous isl1-mER-Cre-mER/R26R were plated on fibronectin coated glass chamber slides and allowed to spontaneously differentiate in DMEM/F12 containing B27 supplement, 2% FBS, and 10 ng/ml EGF. After 5 days in culture, cells were incubated for 20 minutes with 5 μM Fluo-4 AM (Molecular Probes) in HEPES buffer. Cells were then rinsed three times in HEPES buffer, pH 7.4, containing 1.5 mM Ca^2+. Angiotensin II was applied at the final concentration of 10^−7 M. Calcium imaging was acquired every 100 msec in 100 sec installment and analyzed using Metamorph software (Universal Imaging Corporation). Each experiment included three installments to cover the period of the agonist effect.

## Angiotensin II (DRVYIHPF; Angiotensin-2; UniProt P01019 25-32, looked up)
isl1+ progenitors from isl1-mER-Cre-mER/R26R mice after 5 days in culture, Fluo-4 AM
  measured cells in which exposure induced a progressive cytosolic [Ca2+]i increase: 4 of 25
Responding cells, diminished thereafter
  time at which the cytosolic [Ca2+]i increase reached the maximum: ~70 s
